Values of other authors, collected in patent publication US10434129B2, “Composition to enhance HDL cholesterol and to decrease intima-media thickening in animals and humans and a method for its preparation” (ARJUNA NATURAL LTD, priority 2003, dated 2019).

Experiments:
[1] = tested on: rat vascular smooth muscle cells (VSMC)
[2] = tested on: Human umbilical vein endothelial cells (HUVEC); conditions: HUVEC incubated with ox-LDL

O=C(O[C@@H]1O[C@@H]2COC(=O)c3cc(O)c(O)c(O)c3-c3c(cc(O)c(O)c3O)C(=O)O[C@H]([C@H]1O)[C@@H]2O)c1cc(O)c(O)c(O)c1 [corilagin]
VSMC proliferation induced by ox-LDL [1]: inhibited VSMC proliferation
Malondialdehyde (MDA) in the culture media [2]: reduce MDA
adhesion of HUVEC to monocytes ([2]; then monocytes): prevented HUVEC from adhering to monocytes
